Legend:
[1] = system: A549 parent and A549-HNO cells
Experimental: (§1) Exposure to Radicals: Cells were exposed to varying concentrations of hydrogen peroxide to determine if the adapted cells were resistant to high free radical environments generated by oxygen-based free radicals. Parent and adapted cells were seeded (100 μL) into 96-well microtiter plates in the appropriate media (parent cells in media without NO donor, HNO cells in media supplemented with 600 μM DETA-NONOate) and incubated overnight, reaching approximately 70% confluency by the following day. Cells were treated with varying concentrations (0-1.78 mM) of hydrogen peroxide (30% w/w solution, Sigma H1009, Sigma-Aldrich Corp., St. Louis, Mo., USA) and incubated at 37° C. for an additional 24 h. MTT cell viability/proliferation assays were then performed, as described above. A minimum of four replicate wells were measured for each cell line at each concentration, and assays were repeated in triplicate. Data were normalized against the mean of the untreated control cells, and values lying outside of two standard deviations were removed. Data were plotted as the mean normalized absorbance±standard error.

[2] = system: SCC016 parent and HNO cells
Experimental: as §1

[3] = system: BT-20 parent and HNO cells
Experimental: as §1

[4] = system: SCC056 parent and HNO cells
Experimental: as §1

[5] = system: T-47D parent and HNO cells
Experimental: as §1

[6] = system: Hs578t parent and HNO cells
Experimental: as §1

[7] = system: four breast adenocarcinoma cell line pairs, parent and HNO cells; conditions: 24 h exposure, T-47D, Hs578T, BT-20, MCF-7 pairs
Experimental: as §1

[8] = system: SCC040 parent and HNO cells
Experimental: as §1

[9] = system: MCF-7 parent and HNO cells
Experimental: as §1

[10] = system: SCC116 parent and HNO cells
Experimental: as §1

[11] = system: HNSCC parent and HNO cells; conditions: 24 h exposure, HNSCC cell lines
Experimental: as §1

[12] = system: SCC114 parent and HNO cells
Experimental: as §1

parent A549 cells = experiment: MTT viability/proliferation in media containing 600 μM DETA-NONOate; assay type: cell-based, human; conditions: 600 μM donor, 72 hour period
Experimental: (§2) Viability of Long Term NO Adapted Cultures: Cells from each of the cell lines were seeded (100 μL) into 96-wellmicrotiter plates and grown for 24 h, to ˜70% confluency. The media was then removed, and the cells were treated with 100-μL media containing varying concentrations (0-600 μM) of DETA-NONOate. Following an additional 72-h incubation period, cell proliferation/viability was assessed using the 3-(4,5-dimethylthiazol-2-yl)-2,5-diphenyltetrazolium bromide (MTT) assay. Media was removed from each well, and 100 μL of 2 mg/mL of MTT (Sigma-Aldrich Corp., St. Louis, Mo. USA) in phosphate buffer saline (PBS) was added. Plates were then placed in an incubator (37° C.) for 5 h, during which time purple formazan crystals formed upon the reaction of the MTT with mitochondrial dehydrogenases of viable cells. Following the incubation period, the MTT solution was removed, and 100 μL of dimethyl sulfoxide (DMSO) was added. The absorbance of the resulting purple solution in each well was read (540 nm) using a SpectraMax® Plus 384 spectrophotometer (Molecular Devices, Inc., Sunnyvale, Calif., USA). Each experiment was independently conducted a minimum of three times, and a minimum of four replicate wells were tested for each cell line at each concentration. Data were normalized to the mean optical density of the untreated control cells. […]

[13] = system: five HNSCC cell lines, parent cells; experiment: as above; assay type: cell-based, human
Experimental: as §2

[14] = buffer, pH 7.4; cited from earlier work
tumor cell lines = experiment: MTT viability after 72 h exposure to 0-600 μM DETA-NONOate; assay type: cell-based; conditions: doses 0-600 μM
Experimental: as §2

LP07 parent cells = experiment: MTT viability/proliferation in media containing 300 μM DETA-NONOate; assay type: cell-based, mouse; conditions: LP07 cell line
Experimental: as §2

Compound | concentrations at which both parent and HNO cells were killed ([1]; 24 h exposure, A549 and A549-HNO) [mM] | H2O2 Resistance: highest concentration of H2O2 that the HNO cell lines grow in which the parent cell lines do not survive ([1]; A549) [mM] | H2O2 Resistance: highest concentration of H2O2 that the HNO cell lines grow in which the parent cell lines do not survive [2] [mM] | H2O2 Resistance: highest concentration of H2O2 that the HNO cell lines grow in which the parent cell lines do not survive [3] [mM] | H2O2 Resistance: highest concentration of H2O2 that the HNO cell lines grow in which the parent cell lines do not survive [4] [mM] | H2O2 Resistance: highest concentration of H2O2 that the HNO cell lines grow in which the parent cell lines do not survive [5] [mM] | H2O2 Resistance: highest concentration of H2O2 that the HNO cell lines grow in which the parent cell lines do not survive [6] [mM] | concentrations at which both parent and HNO cells were killed [7] [µM] | H2O2 Resistance: highest concentration of H2O2 that the HNO cell lines grow in which the parent cell lines do not survive [8] [mM] | H2O2 Resistance: highest concentration of H2O2 that the HNO cell lines grow in which the parent cell lines do not survive [9] [mM] | H2O2 Resistance: highest concentration of H2O2 that the HNO cell lines grow in which the parent cell lines do not survive [10] [mM] | concentrations that killed both parent and HNO cells [11] | H2O2 Resistance: highest concentration of H2O2 that the HNO cell lines grow in which the parent cell lines do not survive [12] [mM] | survival of parent cells placed directly into HNO environment (parent A549 cells) | survival of parent cells in media containing the NO donor [13] | half-life [14] | minimum concentration studied that was completely lethal to the cells (tumor cell lines) [µM] | survival of parent cells in media containing the NO donor (LP07 parent cells)
OO [H2O2, hydrogen peroxide] | ≥ 0.055 | 0.055 | 0.028 | 0.0069 | 0.028 | 0.028 | 0.0069 | ≥ 110 | 0.028 | 0.014 | 0.028 | above 55 μM | 0.55 | – | – | – | – | –
(Z)-1-[2-(2-aminoethyl)-N-(2-ammonioethyl) amino]diazen-1-ium-1,2-diolate [DETA-NONOate] | – | – | – | – | – | – | – | – | – | – | – | – | – | not able to survive | completely killed | approximately 24 h | 600 | Analogous results

— patent publication US20110293525A1, “TUMOR STEM CELLS” (BOARD OF TRUSTEES OF THE UNIVERSITY OF ILLINOIS, priority 2010, published 2011)
